Measured values: patent publication US9464058B2 (Hoffmann-La Roche Inc., priority 2012, dated 2016)

Assays:
human CYP11B2 = molecular target: T1, human CYP11B2 (Homo sapiens, UniProt P19099); assay: G-402 cellular enzyme assay, human CYP11B2 (aldosterone release, HTRF); type: cell-based; details: G-402 cells expressing human CYP11B2; 1 μM Deoxycorticosterone; 16 h
T1 construct: expressed in transfected cells
T1 sequence (P19099 25-503): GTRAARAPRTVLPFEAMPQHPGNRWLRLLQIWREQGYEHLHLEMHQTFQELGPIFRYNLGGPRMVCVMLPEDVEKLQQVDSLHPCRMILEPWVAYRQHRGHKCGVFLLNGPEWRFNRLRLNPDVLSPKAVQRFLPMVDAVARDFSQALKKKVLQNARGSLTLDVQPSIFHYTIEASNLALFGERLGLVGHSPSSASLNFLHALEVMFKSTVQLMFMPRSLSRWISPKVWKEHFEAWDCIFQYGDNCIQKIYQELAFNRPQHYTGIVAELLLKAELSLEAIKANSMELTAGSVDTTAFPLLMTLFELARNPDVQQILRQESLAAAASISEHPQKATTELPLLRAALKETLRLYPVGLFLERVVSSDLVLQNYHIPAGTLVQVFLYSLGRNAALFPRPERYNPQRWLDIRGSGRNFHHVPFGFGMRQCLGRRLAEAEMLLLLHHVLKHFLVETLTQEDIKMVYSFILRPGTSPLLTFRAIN
Description: (§1) Herein we identified the use of the G-402 cell line as a host cell to ectopically express (transiently or stably) enzymes of the CYP11 family. Specifically we developed stable G-402 cells expressing ectopically human CYP11B1, human CYP11B2, human CYP11A1, cynomolgus CYP11B1 or cynomolgus CYP11B2 enzyme activity. Importantly, the identified cell line G-402 expresses co-factors (adrenodoxin and adrenodoxin reductase) important for the activity of the CYP11 family, and no relevant enzyme activity of the CYP11 family (in comparison to H295R cells) was detected in these cells. Therefore the G-402 cell line is uniquely suited as a host cell for the ectopic expression of enzymes from the CYP11 family.
(§2) G-402 cells can be obtained from ATCC(CRL-1440) and were originally derived from a renal leiomyoblastoma.
(§3) The expression plasmids contains the ORF for either human/cyno CYP11B1 or CYP11B2 under the control of a suitable promoter (CMV-promoter) and a suitable resistance marker (neomycin). Using standard techniques the expression plasmid is transfected into G-402 cells and these cells are then selected for expressing the given resistance markers. Individual cell-clones are then selected and assessed for displaying the desired enzymatic activity using 11-Deoxycorticosterone (Cyp11B2) or 11-Deoxycortisol (Cyp11B1) as a substrate.
(§4) G-402 cells expressing CYP11 constructs were established as described above and maintained in McCoy's 5a Medium Modified, ATCC Catalog No. 30-2007 containing 10% FCS and 400 μg/ml G418 (Geneticin) at 37° C. under an atmosphere of 5% CO2/95% air. Cellular enzyme assays were performed in DMEM/F12 medium containing 2.5% charcoal treated FCS and appropriate concentration of substrate (0.3-10 uM 11-Deoxycorticosterone, 11-Deoxycortisol or Corticosterone). For assaying enzymatic activity, cells were plated onto 96 well plates and incubated for 16 h. An aliquot of the supernatant is then transferred and analyzed for the concentration of the expected product (Aldosterone for CYP11B2; Cortisol for CYP11B1). The concentrations of these steroids can be determined using HTRF assays from CisBio analyzing either Aldosterone or Cortisol.
(§5) Inhibition of the release of produced steroids can be used as a measure of the respective enzyme inhibition by test compounds added during the cellular enzyme assay. The dose dependent inhibition of enzymatic activity by a compound is calculated by means of plotting added inhibitor concentrations (x-axes) vs. measured steroid/product level (y-axes). The inhibition is then calculated by fitting the following 4-parameter sigmoidal function (Morgan-Mercer-Flodin (MMF) model) to the raw data points using the least squares method:
(§6) [formula] wherein A is the maximum y value, B is the EC50 factor determined using XLFit, C is the minimum y value and D is the slope value.
(§7) EC50 values for compounds claimed herein were tested with the G402-based assay system described. Cyp11B2 enzyme activity was tested in presence of 1 μM Deoxycorticosterone and variable amounts of inhibitors; Cyp11B1 enzyme activity was tested in presence of 1 μM Deoxycortisol and variable amounts of inhibitors.

human CYP11B1 = molecular target: T2, human CYP11B1 (Homo sapiens, UniProt P15538); assay: G-402 cellular enzyme assay, human CYP11B1 (cortisol release, HTRF); type: cell-based; details: G-402 cells expressing human CYP11B1; 1 μM Deoxycortisol; 16 h
T2 construct: expressed in transfected cells
T2 sequence (P15538 25-503): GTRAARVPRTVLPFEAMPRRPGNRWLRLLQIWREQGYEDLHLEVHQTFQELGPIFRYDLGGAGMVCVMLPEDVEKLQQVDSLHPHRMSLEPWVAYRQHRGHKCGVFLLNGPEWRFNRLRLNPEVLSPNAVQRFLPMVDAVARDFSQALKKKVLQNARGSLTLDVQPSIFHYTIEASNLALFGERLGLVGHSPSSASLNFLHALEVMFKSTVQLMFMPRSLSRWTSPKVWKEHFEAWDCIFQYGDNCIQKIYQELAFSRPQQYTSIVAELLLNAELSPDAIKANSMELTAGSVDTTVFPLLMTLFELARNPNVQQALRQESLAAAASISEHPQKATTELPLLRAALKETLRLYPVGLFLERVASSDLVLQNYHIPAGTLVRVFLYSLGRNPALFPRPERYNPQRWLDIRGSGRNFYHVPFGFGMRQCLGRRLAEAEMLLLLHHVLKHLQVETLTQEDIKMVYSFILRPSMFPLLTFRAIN
Description: as §1, §2, §3, §4, §5, §6, §7

Structure (SMILES)	EC50 (human CYP11B2) [nM]	EC50 (human CYP11B1) [nM]
Cn1cncc1C(=O)c1ccc(C(F)(F)F)cc1 [Example 31, (3-Methyl-3H-imidazol-4-yl)-(4-trifluoromethyl-phenyl)-methanone]	197	7840
CCn1cncc1C(=O)c1ccc(C(C)(C)C)cc1 [Example 35, (4-tert-Butyl-phenyl)-(3-ethyl-3H-imidazol-4-yl)-methanone]	3670	1690
CCn1cncc1C(=O)c1ccc(C(F)(F)F)cc1 [Example 36, (3-Ethyl-3H-imidazol-4-yl)-(4-trifluoromethyl-phenyl)-methanone]	58.7	1750
CSc1ccc(C(=O)c2cncn2C)cc1 [Example 43, (3-Methyl-3H-imidazol-4-yl)-(4-methylsulfanyl-phenyl)-methanone]	28.4	1530
Cn1cncc1C(=O)c1ccc2sccc2c1 [Example 44, Benzo[b]thiophen-5-yl-(3-methyl-3H-imidazol-4-yl)-methanone]	40.9	1070
Cn1cncc1C(=O)c1ccc(F)c(C#N)c1 [Example 45, 2-Fluoro-5-(3-methyl-3H-imidazole-4-carbonyl)-benzonitrile]	575	11300
CCSc1ccc(C(=O)c2cncn2C)cc1 [Example 51, (4-Ethylsulfanyl-phenyl)-(3-methyl-3H-imidazol-4-yl)-methanone]	102	3250
CCn1cncc1C(=O)c1cccc(C#N)c1 [Example 56, 3-(3-Ethyl-3H-imidazole-4-carbonyl)-benzonitrile]	109	1210
CC(C)n1cncc1C(=O)c1cccc(C#N)c1 [Example 57, 3-(3-Isopropyl-3H-imidazole-4-carbonyl)-benzonitrile]	26	203
N#Cc1cccc(C(=O)c2cncn2C2CC2)c1 [Example 58, 3-(3-Cyclopropyl-3H-imidazole-4-carbonyl)-benzonitrile]	87.2	890
CC(=O)N(C)c1ccc(C(=O)c2cncn2C(C)C)cc1 [Example 59, N-[4-(3-Isopropyl-3H-imidazole-4-carbonyl)-phenyl]-N-methyl-acetamide]	51.3	5040
CCn1cncc1C(=O)c1ccc(F)c(C#N)c1 [Example 63, 5-(3-Ethyl-3H-imidazole-4-carbonyl)-2-fluoro-benzonitrile]	335	3440
CC(C)n1cncc1C(=O)c1ccc(F)c(C#N)c1 [Example 64, 2-Fluoro-5-(3-isopropyl-3H-imidazole-4-carbonyl)-benzonitrile]	323	448

Compounds with a lower EC50 (human CYP11B2), results first:

EC50 (human CYP11B2) [nM]	EC50 (human CYP11B1) [nM]	Structure (SMILES)
20.3	259	C#Cc1ccc(C(=O)c2cncn2C)cc1 [Example 29, (4-Ethynyl-phenyl)-(3-methyl-3H-imidazol-4-yl)-methanone]
11.7	304	Cn1cncc1C(=O)c1ccc(F)c(Cl)c1 [Example 32, (3-Chloro-4-fluoro-phenyl)-(3-methyl-3H-imidazol-4-yl)-methanone]
3.7	31.7	CCn1cncc1C(=O)c1ccc(F)c(Cl)c1 [Example 33, (3-Chloro-4-fluoro-phenyl)-(3-ethyl-3H-imidazol-4-yl)-methanone]
2.7	33	CCn1cncc1C(=O)c1ccc(Cl)c(F)c1 [Example 34, (4-Chloro-3-fluoro-phenyl)-(3-ethyl-3H-imidazol-4-yl)-methanone]
6.3	78.2	CCC(C)n1cncc1C(=O)c1cccc(C#N)c1 (centres unmarked) [Example 37, 3-(3-sec-Butyl-3H-imidazole-4-carbonyl)-benzonitrile]
3.9	3.9	CC(C)n1cncc1C(=O)c1ccc(F)c(Cl)c1 [Example 38, (3-Chloro-4-fluoro-phenyl)-(3-isopropyl-3H-imidazol-4-yl)-methanone]
0.7	3.3	CC(C)n1cncc1C(=O)c1ccc(Cl)c(F)c1 [Example 39, (4-Chloro-3-fluoro-phenyl)-(3-isopropyl-3H-imidazol-4-yl)-methanone]
2.3	14.8	O=C(c1ccc(Cl)c(F)c1)c1cncn1C1CC1 [Example 40, (4-Chloro-3-fluoro-phenyl)-(3-cyclopropyl-3H-imidazol-4-yl)-methanone]
3.5	21	O=C(c1ccc(F)c(Cl)c1)c1cncn1C1CC1 [Example 41, (3-Chloro-4-fluoro-phenyl)-(3-cyclopropyl-3H-imidazol-4-yl)-methanone]
7.4	89.3	Cn1cncc1C(=O)c1ccc(C#N)c(Cl)c1 [Example 42, 2-Chloro-4-(3-methyl-3H-imidazole-4-carbonyl)-benzonitrile]
2.3	25.4	CCn1cncc1C(=O)c1ccc(C#N)c(Cl)c1 [Example 46, 2-Chloro-4-(3-ethyl-3H-imidazole-4-carbonyl)-benzonitrile]
4.3	33	C#Cc1ccc(C(=O)c2cncn2CC)cc1 [Example 48, (3-Ethyl-3H-imidazol-4-yl)-(4-ethynyl-phenyl)-methanone]
0.2	1	CC(C)n1cncc1C(=O)c1ccc(C#N)c(Cl)c1 [Example 49, 2-Chloro-4-(3-isopropyl-3H-imidazole-4-carbonyl)-benzonitrile]
14.8	687	COc1cc(C(=O)c2cncn2C)ccc1SC [Example 50, (3-Methoxy-4-methylsulfanyl-phenyl)-(3-methyl-3H-imidazol-4-yl)-methanone]
0.5	6.8	C#Cc1ccc(C(=O)c2cncn2C(C)C)cc1 [Example 54, (4-Ethynyl-phenyl)-(3-isopropyl-3H-imidazol-4-yl)-methanone]
4	84.3	CCn1cncc1C(=O)c1ccc(SC)c(OC)c1 [Example 60, (3-Ethyl-3H-imidazol-4-yl)-(3-methoxy-4-methylsulfanyl-phenyl)-methanone]
0.2	8.7	COc1cc(C(=O)c2cncn2C(C)C)ccc1SC [Example 61, (3-Isopropyl-3H-imidazol-4-yl)-(3-methoxy-4-methylsulfanyl-phenyl)-methanone]
2.8	46.1	COc1cc(C(=O)c2cncn2C2CC2)ccc1SC [Example 62, (3-Cyclopropyl-3H-imidazol-4-yl)-(3-methoxy-4-methylsulfanyl-phenyl)-methanone]
